The experiment deals with Plasmodium berghei. Kind of experiment: Luciferase/luciferin-expressing antifolate-resistant parasites were used to infect a culture of HepG2 cells that were pre-incubated with compounds. Infected hepatocytes emit light due to the luciferase reaction. Assay results are presented as the percent inhibition of light emission compared to control. […]. In kind it is functional. To be noted: sporozoite; for IC90: read-out: LUCIFERASE INFECTION ASSAY - IC90.

Usually IC50 stands for the concentration that gives 50% inhibition. Usually IC90 stands for the point of the concentration-response curve where the effect stands at 90%.

`CC(N=C(S)Nc1ccc(OC(F)F)c(Cl)c1)C(C)(C)C` (stereo unspecified): the IC90 is more than 10 µM. Also, the IC50 (HEPG2TOX_HILL_SLOPE 8.22, HEPG2TOX_R_SQUARED 0.242, PBLUC_HILL_SLOPE 12.6, PBLUC_R_SQUARED 0.772, read-out: LUCIFERASE INFECTION ASSAY - IC50) is 8.6 µM.
Take `O=[N+]([O-])c1ccc(Oc2ccc(F)cc2Br)c2ccncc12`: the IC90 was 9.13 µM. Besides, the 50% inhibitory concentration (IC50) (HEPG2TOX_HILL_SLOPE 8.14, 7.27, HEPG2TOX_R_SQUARED 0.719, 0.841, PBLUC_HILL_SLOPE 4.57, PBLUC_R_SQUARED 0.39, read-out: LUCIFERASE INFECTION ASSAY - IC50) came to 5.65 µM.
In the case of `CCN(Cc1ccccc1)c1ccc(/C=N/N=C(N)N)cc1`, the IC90 came out at 5.13 µM. Further, the concentration for half-maximal inhibition (IC50) (HEPG2TOX_HILL_SLOPE 8.25, HEPG2TOX_R_SQUARED 0.944, PBLUC_HILL_SLOPE 2.7, PBLUC_R_SQUARED 0.838, read-out: LUCIFERASE INFECTION ASSAY - IC50) is 2.27 µM.
Turning to `FC(F)(F)c1cccc(-c2ccc3ncc(-c4ccncc4)n3n2)c1`, the IC90 was 1.31 µM. Besides, the half-maximal inhibitory concentration (IC50) (HEPG2TOX_HILL_SLOPE 8.22, HEPG2TOX_R_SQUARED 0.275, PBLUC_HILL_SLOPE 7.22, PBLUC_R_SQUARED 0.51, read-out: LUCIFERASE INFECTION ASSAY - IC50) was determined as 0.969 µM.
Turning to `CC(=O)N1N=C(c2ccccc2O)CC1c1c(F)cccc1Cl` (stereo unspecified), the IC90 stood at 9.88 µM. The IC50 (HEPG2TOX_HILL_SLOPE 8.22, HEPG2TOX_R_SQUARED 0.351, PBLUC_HILL_SLOPE 15.6, PBLUC_R_SQUARED 0.178, read-out: LUCIFERASE INFECTION ASSAY - IC50) worked out at 8.59 µM.
`Cc1cccc(-c2nnc(Sc3nc(C)nc4sc5c(c34)CCCC5)n2CC(N)=O)c1`: the concentration for an effect of 90% (IC90) came to 1.1 µM. Besides, where the note is “HEPG2TOX_HILL_SLOPE 8.24, HEPG2TOX_R_SQUARED 0.61, PBLUC_HILL_SLOPE 14.6, PBLUC_R_SQUARED 0.735, read-out: LUCIFERASE INFECTION ASSAY - IC50”, the half-maximal inhibitory concentration (IC50) was determined as 0.944 µM.
Regarding `NC(=O)c1ccc(-c2cc(-c3ccc(F)cc3)cnc2N)cc1`, the IC90 stood at 2.33 µM. For the same compound, where the note is “HEPG2TOX_HILL_SLOPE 8.28, HEPG2TOX_R_SQUARED 0.58, PBLUC_HILL_SLOPE 436, PBLUC_R_SQUARED 0.522, read-out: LUCIFERASE INFECTION ASSAY - IC50”, the concentration for half-maximal inhibition (IC50) is 2.32 µM.
Consider `CC(=O)C1C2C(=O)N(C(C)(C)C)C(=O)C2C2C=Cc3ccc4cccnc4c3N21` (stereo unspecified), for which the IC90 amounted to 6.42 µM. Further, the IC50 (HEPG2TOX_HILL_SLOPE 8.2, HEPG2TOX_R_SQUARED 0.867, PBLUC_HILL_SLOPE 4.87, PBLUC_R_SQUARED 0.475, read-out: LUCIFERASE INFECTION ASSAY - IC50) was determined as 4.09 µM.
In the case of `COc1ccc(/C=C(/C(=O)Nc2ccc(Cl)cc2)c2nc3ccccc3s2)cc1O`, the IC90 was found to be 4.29 µM. Where the note is “HEPG2TOX_HILL_SLOPE 8.13, HEPG2TOX_R_SQUARED 0.744, PBLUC_HILL_SLOPE 10.1, PBLUC_R_SQUARED 0.615, read-out: LUCIFERASE INFECTION ASSAY - IC50”, the 50% inhibitory concentration (IC50) was found to be 3.45 µM.
Turning to `C/C(=N\NC(=S)NC(C)(C)C)c1cc(F)cc(F)c1O`, the IC90 amounted to 10.5 µM. The 50% inhibitory concentration (IC50) (HEPG2TOX_HILL_SLOPE 8.26, HEPG2TOX_R_SQUARED 0.458, PBLUC_HILL_SLOPE 21.3, PBLUC_R_SQUARED 0.177, read-out: LUCIFERASE INFECTION ASSAY - IC50) amounted to 9.5 µM.
`CCn1c(NC(=O)c2[nH]nc3ccccc23)nc2ccccc21`: the IC90 was more than 10 µM. Further, the IC50 (HEPG2TOX_HILL_SLOPE 8.17, HEPG2TOX_R_SQUARED 0.11, PBLUC_HILL_SLOPE 5.04, PBLUC_R_SQUARED 0.686, read-out: LUCIFERASE INFECTION ASSAY - IC50) was 7.76 µM.
As to `O=C(COc1ccc2c3c(c(=O)oc2c1)CCC3)Nc1nc(-c2ccccn2)cs1`, the IC90 is more than 10 µM. Further, where the note is “HEPG2TOX_HILL_SLOPE 8.22, HEPG2TOX_R_SQUARED 0.725, PBLUC_HILL_SLOPE 12.7, PBLUC_R_SQUARED 0.0522, read-out: LUCIFERASE INFECTION ASSAY - IC50”, the IC50 amounted to 9.13 µM.
As for `O=C1/C(=C/c2ccc3c(c2)OCO3)CCCc2ccccc21`, the IC90 was more than 11.3 µM. The IC50 (HEPG2TOX_HILL_SLOPE 8.25, HEPG2TOX_R_SQUARED 0.793, PBLUC_HILL_SLOPE 3.07, PBLUC_R_SQUARED 0.361, read-out: LUCIFERASE INFECTION ASSAY - IC50) is more than 11.3 µM.
In the case of `CCCCNC(=O)Nc1nc(-c2ccccc2)cn1/N=C/c1ccccc1`, the IC90 is more than 10 µM. Moreover, the IC50 (HEPG2TOX_HILL_SLOPE 8.27, HEPG2TOX_R_SQUARED 0.417, read-out: LUCIFERASE INFECTION ASSAY - IC50) is more than 10 µM.
For `COc1cc(-c2cn3c(-c4cccc(C(C)=O)c4)cnc3cn2)ccc1O`, the IC90 was more than 9.18 µM. In addition, the 50% inhibitory concentration (IC50) (HEPG2TOX_HILL_SLOPE 8.28, HEPG2TOX_R_SQUARED 0.589, PBLUC_HILL_SLOPE 10.1, PBLUC_R_SQUARED 0.274, read-out: LUCIFERASE INFECTION ASSAY - IC50) came out at 7.75 µM.
Regarding `O=C(/C=C/c1ccccc1OC(F)F)N(Cc1ccccc1)c1nnc(SC(F)F)s1`, the IC90 is 3.6 µM. In addition, the half-inhibitory concentration (IC50) (HEPG2TOX_HILL_SLOPE 8.23, HEPG2TOX_R_SQUARED 0.589, PBLUC_HILL_SLOPE 26.6, PBLUC_R_SQUARED 0.272, read-out: LUCIFERASE INFECTION ASSAY - IC50) is 3.31 µM.
Take `CCOC(=O)NC1=C/C(=N\S(=O)(=O)c2ccc(C)cc2)c2ccccc2C1=O`: the 90% effect concentration (IC90) was more than 10 µM. In addition, the half-inhibitory concentration (IC50) (HEPG2TOX_HILL_SLOPE 8.17, HEPG2TOX_R_SQUARED 0.938, PBLUC_HILL_SLOPE 4.13, PBLUC_R_SQUARED 0.0669, read-out: LUCIFERASE INFECTION ASSAY - IC50) was more than 10 µM.
Regarding `FC(F)Oc1ccc(NC(=S)NCC23CC4CC(CC(C4)C2)C3)cc1`, the IC90 stood at 9.77 µM. Further, the half-inhibitory concentration (IC50) (HEPG2TOX_HILL_SLOPE 8.2, HEPG2TOX_R_SQUARED 0.229, PBLUC_HILL_SLOPE 14.4, PBLUC_R_SQUARED 0.791, read-out: LUCIFERASE INFECTION ASSAY - IC50) is 8.38 µM.
For the compound `C=C(C)[C@@H]1CC=C(CN2CCC3(CC2)C(=O)N(Cc2cccnc2)C(=O)N3CCc2ccccc2)CC1`, the IC90 is more than 6.62 µM. The 50% inhibitory concentration (IC50) (HEPG2TOX_HILL_SLOPE 8.2, HEPG2TOX_R_SQUARED 0.91, PBLUC_HILL_SLOPE 3.93, PBLUC_R_SQUARED 0.652, read-out: LUCIFERASE INFECTION ASSAY - IC50) turned out to be 3.82 µM.
As for `CN(C)C(=O)c1ccc(-c2cc3c(Nc4cccc(OC(F)(F)F)c4)nccc3[nH]2)cc1`, the IC90 was more than 10 µM. Besides, the IC50 (HEPG2TOX_HILL_SLOPE 8.24, HEPG2TOX_R_SQUARED 0.393, PBLUC_HILL_SLOPE 3.02, PBLUC_R_SQUARED 0.574, read-out: LUCIFERASE INFECTION ASSAY - IC50) came to 4.92 µM.
As to `CC(C)OCc1cccc(NC(=O)Nc2cccc(Cl)c2)c1`, the IC90 is 1.8 µM. Under “HEPG2TOX_HILL_SLOPE 8.19, HEPG2TOX_R_SQUARED 0.0219, PBLUC_HILL_SLOPE 262, PBLUC_R_SQUARED 0.512, read-out: LUCIFERASE INFECTION ASSAY - IC50”, the 50% inhibitory concentration (IC50) was 1.78 µM.
For `O=C(Nc1cccc(C(F)(F)F)c1)Nc1ccc2nc(-c3ccoc3)nn2c1`, the IC90 turned out to be 5.31 µM. In addition, for the setting “HEPG2TOX_HILL_SLOPE 8.17, HEPG2TOX_R_SQUARED 0.681, PBLUC_HILL_SLOPE 272, PBLUC_R_SQUARED 0.378, read-out: LUCIFERASE INFECTION ASSAY - IC50”, the half-inhibitory concentration (IC50) was 5.27 µM.
`CN(CC(=O)Nc1nc(C23CC4CC(CC(C4)C2)C3)cs1)C(=O)c1ccco1`: the IC90 is 4.63 µM. Moreover, the IC50 (HEPG2TOX_HILL_SLOPE 8.2, HEPG2TOX_R_SQUARED 0.447, PBLUC_HILL_SLOPE 10.5, PBLUC_R_SQUARED 0.337, read-out: LUCIFERASE INFECTION ASSAY - IC50) worked out at 3.76 µM.
As to `CNC(=O)c1ccc(/C=C/C(=O)c2ccc3c4c(cccc24)CC3)cc1`, the concentration for an effect of 90% (IC90) is 9.31 µM. The IC50 (HEPG2TOX_HILL_SLOPE 8.19, HEPG2TOX_R_SQUARED 0.612, PBLUC_HILL_SLOPE 20.8, PBLUC_R_SQUARED 0.622, read-out: LUCIFERASE INFECTION ASSAY - IC50) was 8.38 µM.
For the compound `Cc1oc(C(C)(C)C)cc1-c1cc(NC(=O)Nc2ccc(OC(F)(F)F)cc2)n(-c2cc(C(F)(F)F)cc(C(F)(F)F)c2)n1`, the 90% effect concentration (IC90) was found to be 4.49 µM. Further, the IC50 (HEPG2TOX_HILL_SLOPE 8.23, HEPG2TOX_R_SQUARED 0.187, PBLUC_HILL_SLOPE 2.09, PBLUC_R_SQUARED 0.645, read-out: LUCIFERASE INFECTION ASSAY - IC50) was 1.57 µM.
For `CCC(C)NC(=O)c1c(NC(=O)c2cccc(C)c2)nc2ccc(C)cn12` (stereo unspecified), the IC90 was found to be 6.6 µM. In addition, under “HEPG2TOX_HILL_SLOPE 8.22, HEPG2TOX_R_SQUARED 0.0887, PBLUC_HILL_SLOPE 4.24, PBLUC_R_SQUARED 0.444, read-out: LUCIFERASE INFECTION ASSAY - IC50”, the IC50 was determined as 3.93 µM.
Consider `O=C(Nc1ccc(Cl)c(C(F)(F)F)c1)Nc1ccc2nc(-c3ccsc3)nn2c1`, for which the concentration for an effect of 90% (IC90) came to 9.25 µM. Where the note is “HEPG2TOX_HILL_SLOPE 8.17, HEPG2TOX_R_SQUARED 0.277, PBLUC_HILL_SLOPE 11.1, PBLUC_R_SQUARED 0.655, read-out: LUCIFERASE INFECTION ASSAY - IC50”, the IC50 came out at 7.59 µM.
Regarding `COc1ccccc1-c1nnc(SC(C(=O)Nc2cc(Cl)cc(Cl)c2)c2ccccc2)o1` (stereo unspecified), the concentration for an effect of 90% (IC90) came to 7.61 µM. Besides, the IC50 (HEPG2TOX_HILL_SLOPE 8.26, HEPG2TOX_R_SQUARED 0.825, PBLUC_HILL_SLOPE 4.24, PBLUC_R_SQUARED 0.374, read-out: LUCIFERASE INFECTION ASSAY - IC50) was 4.54 µM.

(Values after ChEMBL document CHEMBL4483862, “Open-source discovery of chemical leads for next-generation chemoprotective antimalarials” (2018).)
